Measured values taken from ChEMBL document CHEMBL5154747, “Discovery of new carbonic anhydrase IX inhibitors as anticancer agents by toning the hydrophobic and hydrophilic rims of the active site to encounter the dual-tail approach” (Eur J Med Chem, 2022).

Experiments:
[1] = test system: SNB-75; experiment: Anticancer activity against human SNB-75 cells assessed as cell growth inhibition at 10 uM incubated for 48 hrs by SRB assay relative to control; type: functional; conditions: read-out: GI
[2] = test system: NCI-H23; experiment: Anticancer activity against human NCI-H23 cells assessed as cell growth inhibition at 10 uM incubated for 48 hrs by SRB assay relative to control; type: functional; conditions: read-out: GI
[3] = test system: ACHN; experiment: Anticancer activity against human ACHN cells assessed as cell growth inhibition at 10 uM incubated for 48 hrs by SRB assay relative to control; type: functional; conditions: read-out: GI
[4] = test system: HOP-92; experiment: Anticancer activity against human HOP-92 cells assessed as cell growth inhibition at 10 uM incubated for 48 hrs by SRB assay relative to control; type: functional; conditions: read-out: GI
[5] = test system: HCT-15; experiment: Anticancer activity against human HCT-15 cells assessed as cell growth inhibition at 10 uM incubated for 48 hrs by SRB assay relative to control; type: functional; conditions: read-out: GI
[6] = test system: IGROV-1; experiment: Anticancer activity against human IGROV-1 cells assessed as cell growth inhibition at 10 uM incubated for 48 hrs by SRB assay relative to control; type: functional; conditions: read-out: GI
[7] = test system: MDA-MB-468; experiment: Anticancer activity against human MDA-MB-468 cells assessed as cell growth inhibition at 10 uM incubated for 48 hrs by SRB assay relative to control; type: functional; conditions: read-out: GI
[8] = test system: SK-OV-3; experiment: Anticancer activity against human SK-OV-3 cells assessed as cell growth inhibition at 10 uM incubated for 48 hrs by SRB assay relative to control; type: functional; conditions: read-out: GI
[9] = test system: NCI-H226; experiment: Anticancer activity against human NCI-H226 cells assessed as cell growth inhibition at 10 uM incubated for 48 hrs by SRB assay relative to control; type: functional; conditions: read-out: GI
[10] = test system: SF-539; experiment: Anticancer activity against human SF-539 cells assessed as cell growth inhibition at 10 uM incubated for 48 hrs by SRB assay relative to control; type: functional; conditions: read-out: GI
[11] = test system: NCI/ADR-RES; experiment: Anticancer activity against human NCI/ADR-RES cells assessed as cell growth inhibition at 10 uM incubated for 48 hrs by SRB assay relative to control; type: functional; conditions: read-out: GI
[12] = test system: NCI-H460; experiment: Anticancer activity against human NCI-H460 cells assessed as cell growth inhibition at 10 uM incubated for 48 hrs by SRB assay relative to control; type: functional; conditions: read-out: GI
[13] = test system: CCRF-CEM; experiment: Anticancer activity against human CCRF-CEM cells assessed as cell growth inhibition at 10 uM incubated for 48 hrs by SRB assay relative to control; type: functional; conditions: read-out: GI
[14] = target: Carbonic anhydrase 9 (Homo sapiens, UniProt Q16790); experiment: Inhibition of recombinant human CA 9 preincubated for 15 mins by phenol red dye based stopped flow CO2 hydration assay
[15] = test system: HCC 2998; experiment: Anticancer activity against human HCC 2998 cells assessed as cell growth inhibition at 10 uM incubated for 48 hrs by SRB assay relative to control; type: functional; conditions: read-out: GI
[16] = test system: NCI-H522; experiment: Anticancer activity against human NCI-H522 cells assessed as cell growth inhibition at 10 uM incubated for 48 hrs by SRB assay relative to control; type: functional; conditions: read-out: GI
[17] = test system: MDA-MB-435; experiment: Anticancer activity against human MDA-MB-435 cells assessed as cell growth inhibition at 10 uM incubated for 48 hrs by SRB assay relative to control; type: functional; conditions: read-out: GI
[18] = test system: SR; experiment: Anticancer activity against human SR cells assessed as cell growth inhibition at 10 uM incubated for 48 hrs by SRB assay relative to control; type: functional; conditions: read-out: GI
[19] = test system: SK-MEL-5; experiment: Anticancer activity against human SK-MEL-5 cells assessed as cell growth inhibition at 10 uM incubated for 48 hrs by SRB assay relative to control; type: functional; conditions: read-out: GI
[20] = test system: A498; experiment: Anticancer activity against human A498 cells assessed as cell growth inhibition at 10 uM incubated for 48 hrs by SRB assay relative to control; type: functional; conditions: read-out: GI
[21] = test system: T47D; experiment: Anticancer activity against human T47D cells assessed as cell growth inhibition at 10 uM incubated for 48 hrs by SRB assay relative to control; type: functional; conditions: read-out: GI
[22] = test system: SF-268; experiment: Anticancer activity against human SF-268 cells assessed as cell growth inhibition at 10 uM incubated for 48 hrs by SRB assay relative to control; type: functional; conditions: read-out: GI
[23] = test system: RPMI-8226; experiment: Anticancer activity against human RPMI-8226 cells assessed as cell growth inhibition at 10 uM incubated for 48 hrs by SRB assay relative to control; type: functional; conditions: read-out: GI
[24] = test system: MCF7; experiment: Anticancer activity against human MCF7 cells assessed as cell growth inhibition at 10 uM incubated for 48 hrs by SRB assay relative to control; type: functional; conditions: read-out: GI
[25] = test system: UO-31; experiment: Anticancer activity against human UO-31 cells assessed as cell growth inhibition at 10 uM incubated for 48 hrs by SRB assay relative to control; type: functional; conditions: read-out: GI
[26] = test system: OVCAR-3; experiment: Anticancer activity against human OVCAR-3 cells assessed as cell growth inhibition at 10 uM incubated for 48 hrs by SRB assay relative to control; type: functional; conditions: read-out: GI
[27] = test system: Hs-578T; experiment: Anticancer activity against human Hs-578T cells assessed as cell growth inhibition at 10 uM incubated for 48 hrs by SRB assay relative to control; type: functional; conditions: read-out: GI
[28] = test system: Malme-3M; experiment: Anticancer activity against human Malme-3M cells assessed as cell growth inhibition at 10 uM incubated for 48 hrs by SRB assay relative to control; type: functional; conditions: read-out: GI
[29] = test system: MDA-MB-231; experiment: Anticancer activity against human MDA-MB-231 cells assessed as cell growth inhibition at 10 uM incubated for 48 hrs by SRB assay relative to control; type: functional; conditions: read-out: GI
[30] = test system: SN12C; experiment: Anticancer activity against human SN12C cells assessed as cell growth inhibition at 10 uM incubated for 48 hrs by SRB assay relative to control; type: functional; conditions: read-out: GI
[31] = test system: PC-3; experiment: Anticancer activity against human PC-3 cells assessed as cell growth inhibition at 10 uM incubated for 48 hrs by SRB assay relative to control; type: functional; conditions: read-out: GI
[32] = test system: UACC-257; experiment: Anticancer activity against human UACC-257 cells assessed as cell growth inhibition at 10 uM incubated for 48 hrs by SRB assay relative to control; type: functional; conditions: read-out: GI
[33] = test system: HCT-116; experiment: Anticancer activity against human HCT-116 cells assessed as cell growth inhibition at 10 uM incubated for 48 hrs by SRB assay relative to control; type: functional; conditions: read-out: GI
[34] = test system: A549; experiment: Anticancer activity against human A549 cells assessed as cell growth inhibition at 10 uM incubated for 48 hrs by SRB assay relative to control; type: functional; conditions: read-out: GI
[35] = test system: SK-MEL-2; experiment: Anticancer activity against human SK-MEL-2 cells assessed as cell growth inhibition at 10 uM incubated for 48 hrs by SRB assay relative to control; type: functional; conditions: read-out: GI
[36] = test system: HT-29; experiment: Anticancer activity against human HT-29 cells assessed as cell growth inhibition at 10 uM incubated for 48 hrs by SRB assay relative to control; type: functional; conditions: read-out: GI
[37] = test system: LOX IMVI; experiment: Anticancer activity against human LOX IMVI cells assessed as cell growth inhibition at 10 uM incubated for 48 hrs by SRB assay relative to control; type: functional; conditions: read-out: GI
[38] = test system: SW-620; experiment: Anticancer activity against human SW-620 cells assessed as cell growth inhibition at 10 uM incubated for 48 hrs by SRB assay relative to control; type: functional; conditions: read-out: GI
[39] = test system: CAKI-1; experiment: Anticancer activity against human CAKI-1 cells assessed as cell growth inhibition at 10 uM incubated for 48 hrs by SRB assay relative to control; type: functional; conditions: read-out: GI
[40] = test system: KM12; experiment: Anticancer activity against human KM12 cells assessed as cell growth inhibition at 10 uM incubated for 48 hrs by SRB assay relative to control; type: functional; conditions: read-out: GI

## Cc1nn(-c2ccccc2)cc1/C=N/Nc1nc(Nc2ccccc2)nc(Nc2ccc(S(N)(=O)=O)cc2)n1
[1]
  inhibition of growth at 10 µM: 55%
[2]
  inhibition of growth at 10 µM: 114%
[3]
  inhibition of growth at 10 µM: 100%
[4]
  inhibition of growth at 10 µM: 113%
[5]
  inhibition of growth at 10 µM: 92%
[6]
  inhibition of growth at 10 µM: 86%
[7]
  inhibition of growth at 10 µM: 137%
[8]
  inhibition of growth at 10 µM: 49%
[9]
  inhibition of growth at 10 µM: 159%
[10]
  inhibition of growth at 10 µM: 28%
[11]
  inhibition of growth at 10 µM: 23%
[12]
  inhibition of growth at 10 µM: 135%
[13]
  inhibition of growth at 10 µM: 91%
[14]
  Ki: 207 nM
[15]
  inhibition of growth at 10 µM: 117%
[16]
  inhibition of growth at 10 µM: 100%
[17]
  inhibition of growth at 10 µM: 131%
[18]
  inhibition of growth at 10 µM: 66%
[19]
  inhibition of growth at 10 µM: 144%
[20]
  inhibition of growth at 10 µM: 130%
[21]
  inhibition of growth at 10 µM: 81%
[22]
  inhibition of growth at 10 µM: 107%
[23]
  inhibition of growth at 10 µM: 123%
[24]
  inhibition of growth at 10 µM: 169%
[25]
  inhibition of growth at 10 µM: 104%
[26]
  inhibition of growth at 10 µM: 131%
[27]
  inhibition of growth at 10 µM: 86%
[28]
  inhibition of growth at 10 µM: 125%
[29]
  inhibition of growth at 10 µM: 120%
[30]
  inhibition of growth at 10 µM: 100%
[31]
  inhibition of growth at 10 µM: 98%
[32]
  inhibition of growth at 10 µM: 44%
[33]
  inhibition of growth at 10 µM: 59%
[34]
  inhibition of growth at 10 µM: 128%
[35]
  inhibition of growth at 10 µM: 45%
[36]
  inhibition of growth at 10 µM: 94%
[37]
  inhibition of growth at 10 µM: 125%
[38]
  inhibition of growth at 10 µM: 114%
[39]
  inhibition of growth at 10 µM: 127%
[40]
  inhibition of growth at 10 µM: 90%

## NS(=O)(=O)c1ccc(Nc2nc(N/N=C/c3c[nH]c4ccccc34)nc(Nc3ccccc3)n2)cc1
[1]
  inhibition of growth at 10 µM: 29%
[2]
  inhibition of growth at 10 µM: 52%
[3]
  inhibition of growth at 10 µM: 18%
[4]
  inhibition of growth at 10 µM: 38%
[5]
  inhibition of growth at 10 µM: 24%
[6]
  inhibition of growth at 10 µM: 66%
[7]
  inhibition of growth at 10 µM: 47%
[8]
  inhibition of growth at 10 µM: < 10%
[9]
  inhibition of growth at 10 µM: 58%
[10]
  inhibition of growth at 10 µM: 52%
[11]
  inhibition of growth at 10 µM: < 10%
[12]
  inhibition of growth at 10 µM: 58%
[13]
  inhibition of growth at 10 µM: 87%
[14]
  Ki: 25.8 nM
[15]
  inhibition of growth at 10 µM: 47%
[16]
  inhibition of growth at 10 µM: 68%
[17]
  inhibition of growth at 10 µM: 68%
[18]
  inhibition of growth at 10 µM: 87%
[19]
  inhibition of growth at 10 µM: 60%
[20]
  inhibition of growth at 10 µM: 48%
[21]
  inhibition of growth at 10 µM: 64%
[22]
  inhibition of growth at 10 µM: 40%
[23]
  inhibition of growth at 10 µM: 105%
[24]
  inhibition of growth at 10 µM: 81%
[25]
  inhibition of growth at 10 µM: 50%
[26]
  inhibition of growth at 10 µM: 73%
[27]
  inhibition of growth at 10 µM: 57%
[28]
  inhibition of growth at 10 µM: 53%
[29]
  inhibition of growth at 10 µM: 51%
[30]
  inhibition of growth at 10 µM: 59%
[31]
  inhibition of growth at 10 µM: 73%
[32]
  inhibition of growth at 10 µM: 36%
[33]
  inhibition of growth at 10 µM: 84%
[34]
  inhibition of growth at 10 µM: 21%
[35]
  inhibition of growth at 10 µM: 32%
[36]
  inhibition of growth at 10 µM: 68%
[37]
  inhibition of growth at 10 µM: 110%
[38]
  inhibition of growth at 10 µM: 50%
[39]
  inhibition of growth at 10 µM: 46%
[40]
  inhibition of growth at 10 µM: 72%
